Measurements as given in article PMC12311952, “Mechanism of SC targeting RhoA regulation and its potential value in gastric cancer therapy” (Biochemistry and Biophysics Reports, 2025).

Biological target: RhoA (Homo sapiens, UniProt P61586)
Experiment: SPR (Biacore T200, RhoA immobilized on CM5 chip, […] Langmuir fit)
Type: binding

RhoA, sequence (P61586 1-190): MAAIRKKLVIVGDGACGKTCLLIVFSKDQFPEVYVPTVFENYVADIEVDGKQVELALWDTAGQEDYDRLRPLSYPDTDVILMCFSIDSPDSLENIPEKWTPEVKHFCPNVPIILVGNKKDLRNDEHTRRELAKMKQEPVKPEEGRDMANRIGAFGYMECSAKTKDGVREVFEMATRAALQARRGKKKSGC

## O=C(/C=C/CCc1ccc(O)c(O)c1)CCCCc1ccc(O)c(O)c1 [compound 5, (E)-1,9-bis(3,4-dihydroxyphenyl)non-3-en-5-one]
  Kd: 1590 nM
